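Grown in 96-well plates, cells were treated for 48 hours with each compound at five concentrations. Insufficient inhibition: endpoint recorded as highest concentration tested. GI50: concentration for 50% inhibition of growth. Definition used: TGI = concentration required for complete inhibition of growth.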
What was measured:
Assay in all cases: growth of human tumour cells (NCI), 48 h
TK-10 renal = tested on: TK-10 renal
COLO 205 colon = tested on: COLO 205 colon
SNB-19 CNS = tested on: SNB-19 CNS
SF-268 CNS = tested on: SF-268 CNS
UACC-257 melanoma = tested on: UACC-257 melanoma
A498 renal = tested on: A498 renal
M14 melanoma = tested on: M14 melanoma
CCRF-CEM leukemia = tested on: CCRF-CEM leukemia
RPMI-8226 leukemia = tested on: RPMI-8226 leukemia
K-562 leukemia = tested on: K-562 leukemia

Row | Structure (SMILES) | GI50 (TK-10 renal) | TGI (TK-10 renal) | GI50 (COLO 205 colon) | TGI (COLO 205 colon) | GI50 (SNB-19 CNS) | TGI (SNB-19 CNS) | GI50 (SF-268 CNS) | TGI (SF-268 CNS) | GI50 (UACC-257 melanoma) | TGI (UACC-257 melanoma) | GI50 (A498 renal) | TGI (A498 renal) | GI50 (M14 melanoma) | TGI (M14 melanoma) | GI50 (CCRF-CEM leukemia) | TGI (CCRF-CEM leukemia) | GI50 (RPMI-8226 leukemia) | TGI (RPMI-8226 leukemia) | GI50 (K-562 leukemia) | TGI (K-562 leukemia)
1 | O=C1NC(=NCC(CO)c2ccccc2)S/C1=C\c1ccc2ncccc2c1 (stereo not given) | > 21.8 µM | > 25 µM | 7.77 µM | > 25 µM | > 25 µM | > 25 µM | > 16.9 µM | > 25 µM | > 25 µM | > 25 µM | > 15.3 µM | > 25 µM | > 25 µM | > 25 µM | 19.5 µM | > 25 µM | 14.6 µM | > 25 µM | 10.6 µM | > 25 µM
2 | COc1cc2c(cc1OCCCCNC(=O)c1cc3ccccc3[nH]1)N=CC1CCCN1C2=O (stereo not given) | 14.7 µM | 33.6 µM | 16 µM | > 100 µM | 20.2 µM | > 100 µM | 4.4 µM | 28 µM | 17.4 µM | 43.8 µM | 22.2 µM | 44.4 µM | 28.2 µM | > 100 µM | 3.45 µM | > 100 µM | 5.67 µM | 96.3 µM | 8.35 µM | > 100 µM
3 | CCOC(=O)C1=C(Nc2ccccc2)OC/C1=N\NC(=O)Cc1ccccc1 |  | > 50 µM |  | > 50 µM |  | > 50 µM |  | > 50 µM |  | > 50 µM |  | > 50 µM |  | > 50 µM |  | > 50 µM |  | > 50 µM |  | > 50 µM
4 | COc1ccc(CN2c3ccccc3Sc3ccccc32)cc1F | > 100 µM | > 100 µM | 0.31 µM | 1.36 µM | 0.463 µM | > 100 µM | 1.14 µM | > 100 µM |  |  | 0.283 µM | 0.927 µM | 0.365 µM | > 100 µM | 0.407 µM | > 100 µM | 0.483 µM | > 100 µM | 0.383 µM | > 100 µM
5 | CCOP(=O)(CCP(=O)(OCC)OCC)OCC.C[CH2][Sn]([Cl])([Cl])[CH2]C | 30.6 µM | 52 µM | 30.4 µM | 50.9 µM | 31.2 µM | 49.9 µM | 38.8 µM | > 66.8 µM | 28.5 µM | 59.3 µM | 17.4 µM | 26 µM | 41.4 µM | > 57.8 µM | 15.5 µM | 50.5 µM | 22.7 µM | 67.2 µM | 27.4 µM | > 100 µM
6 | C[N+](C)(C)CCOP(=O)(O)OP(=O)([O-])OCC1CCC(n2ccc(N)nc2=O)O1 (stereo not given) |  | > 100 µM |  | > 100 µM |  | > 100 µM |  | > 100 µM |  | > 100 µM |  | > 100 µM |  | > 100 µM |  | > 100 µM |  | > 100 µM |  | > 100 µM
7 | Cc1c2ccccc2c(C)c2c3c(ccc12)C(=O)C=CC3=O |  | 36.7 µM |  | 31.5 µM |  | > 100 µM |  | 43.1 µM |  | 41.5 µM |  | > 100 µM |  | > 81.2 µM |  | 6.75 µM |  | 60.6 µM |  | 50.9 µM
8 | CC(C)=CC/C=C(/C)[C@H]1CC[C@]2(C)[C@@H]1CC[C@@H]1[C@@]3(C)CCC(=O)NC(C)(C)[C@@H]3CC[C@]12C | 47.5 µM | > 100 µM | 25.3 µM | 64.7 µM | 25 µM | 72.4 µM | 17.2 µM | 34.6 µM | 31.7 µM | > 100 µM | 23.6 µM | 67.5 µM | 17.8 µM | 39.3 µM | 12.4 µM | 47.9 µM | 11.8 µM | 34.6 µM | 17.3 µM | 88.2 µM
9 | CCN1CCC[C@H]1c1cc(O)c2c(c1OC)C[C@H]1C[C@H]3[C@H](N)C(=O)C(C(N)=O)=C(O)[C@@]3(O)C(=O)C1=C2O | 0.0626 µM | 2.42 µM | 0.0583 µM | 0.682 µM | 0.113 µM | 2.04 µM | 0.0709 µM | 5.25 µM | 0.126 µM | 2.11 µM | 0.0315 µM | 0.2 µM | 0.0492 µM | 1.37 µM | 0.0634 µM | 1.73 µM | 0.041 µM | 0.454 µM | 0.0599 µM | > 100 µM
10 | Fc1ccc(-c2nc(-c3nc4ccc(Cl)cc4[nH]3)cc3c2[nH]c2ccccc23)cc1 | 3.35 µM | 9.86 µM | 1.89 µM | 4.22 µM | 4.27 µM | > 100 µM | 3.66 µM | 17.7 µM | 2.4 µM | 6.62 µM | 2.01 µM | 9.71 µM | 3.05 µM | 11.4 µM | 3.37 µM | 20.3 µM | 1.84 µM | 6.58 µM | 3.32 µM | 38.4 µM
11 | O=C(CC(=O)N1N=C(n2ccc3ccccc32)CC1c1ccccc1)Nc1cccc(Cl)c1 (stereo not given) |  | > 100 µM |  | > 100 µM |  | > 100 µM |  | > 100 µM |  | > 100 µM |  | > 100 µM |  | > 100 µM |  | > 100 µM |  | > 100 µM |  | > 100 µM
12 | CC(=O)OC1(C#N)CC2OC1C1C2N1C(=O)c1ccccc1 (stereo not given) |  | > 100 µM |  | > 100 µM |  | > 100 µM |  | > 100 µM |  |  |  | > 100 µM |  | > 100 µM |  | > 100 µM |  | > 100 µM |  | > 100 µM
13 | CN(C)CC(C(=O)c1ccccc1)c1ccccc1 (stereo not given) | 1.3 µM | 2.67 µM | 1.77 µM | 3.33 µM | 6.1 µM | 19.4 µM | 3.26 µM | 10.8 µM | 1.99 µM | 5.81 µM | 4.44 µM | 18.4 µM | 1.46 µM | 2.92 µM | 0.755 µM | 10.9 µM | 2.08 µM | 7.49 µM | 0.483 µM | 10.1 µM
14 | Cc1ccc(/C=C(\C#N)n2nnc3cc(Cl)c(Cl)cc32)cc1 | 4.4 µM | 36.4 µM | 2.62 µM | 7.16 µM |  |  | 3.66 µM | > 100 µM | 2.95 µM | > 100 µM | 1.91 µM | 4.59 µM | 2.18 µM | 5.66 µM | 1.32 µM | > 100 µM | 1.7 µM | 4.91 µM | 0.892 µM | 33.2 µM
